Reference: patent US20240043527A1 (BioNTech SE, priority 2020, published 2024)

Assays:
[1] = tested on: MDA-MB-231 cells; assay: Ex vivo ADCC assay with plasma of dosed mice, target-negative control cells; type: cell-based, human; details: mouse plasma
Method: (§1) Plasma of mice dosed with five repetitive injections of either 1 μg (˜0.04 mg/kg), 3 μg (˜0.10 mg/kg), 10 μg (˜0.40 mg/kg) and 30 μg (˜1.20 mg/kg) RB_RMAB01 or 80 μg (˜3.20 mg/kg) of IMAB362 was sampled 24 hours post 5th injection and directed to luciferase-based ex vivo ADCC assays. Plasma of untreated mice spiked with IMAB362 served as assay reference. […] (Panel A) RiboMab01 mediated ADCC of NUG-C4 cells after 48 hours incubation with 1% of plasma is shown. […] Error bars are standard errors of the mean (n=3).
(§2) Plasma of untreated mice spiked with IMAB362 served as assay reference.

[2] = tested on: MDA-MB-231 cells; assay: Ex vivo ADCC assay with serum of dosed non-human primates, target-negative control cells; type: cell-based
Method: Non-Human Primates (NHP) received three repetitive doses of 0.1, 0.4 or 1.6 mg/kg RB_RMAB01 once weekly. RiboMab01-containing serum of all monkeys sampled 24 hours (black bars) and 168 hours (white bars) post 1st injection was directed to luciferase-based ex vivo ADCC assays. […] Human PBMCs from two different healthy donors (24 h, donor 1, 168 h, donor 2) served as effector cells. (Panel A) RiboMab01-mediated ADCC of NUG-C4 cells after 48 hours incubation is shown. (Panel B) Unspecific lysis on target-negative MDA-MB-231 cells is shown. Error bars are standard error of the mean (n=3). (Panel C) Serum of NHP No. 14 (1.6 mg/kg RB_RMAB01, RiboMab01 serum concentration 232 μg/mL) collected 48 hours after the 3rd dosing was used for a luciferase-based ex vivo ADCC assays. […] Human PBMCs of a healthy donor served as effector cells. […] Incubation time was 48 hours. Error bars are standard errors of the mean (n=3).
ADCC assays were performed as described in Example 2. […] Purified IMAB362 served as assay reference protein.

[3] = cynomolgus monkey, in vivo
Method: Furthermore, immunotoxicity in vivo was assessed as part of the repeated-dose toxicity study in mice and a pharmacokinetic study in cynomolgus monkey. All studies were designed in accordance with the ICH S8 guideline (Immunotoxicity studies for human pharmaceuticals).

[4] = tested on: primary human hepatocytes; assay: Expression and assembly of RiboMab after lipofection of primary human hepatocytes (ELISA, Western Blot); type: cell-based; details: 48 hours post lipofection
Method: (Left) ELISA analyses of RiboMab01 concentrations 48 hours post transfection. (Right) Western Blot analysis of cell culture supernatant from indicated lipofections. Recombinant purified IMAB362 served as reference for Western Blot analysis. Analysis was performed under non-reducing conditions and with HRP-conjugated anti-human antibodies. A mixture of Fcγ-fragment specific and anti-kappa light chain specific antibodies was used for detection of full length IgG, free heavy (HC) and free light chains (LC). Supernatant of untransfected primary human hepatocytes served as mock control. […] RiboMab01 concentration determined via ELISA 48 hours post transfection are shown. Error bars are standard errors of the mean (n=3).
Assembly of full IgG after RNA transfection of hepatocytes.

[5] = Single dose PK study in rats (ELISA); type: in vivo, RjHan:Wister rats; details: single IV dose, post administration
Method: RjHan:Wister rats received a single IV injection of 0.04, 0.10, 0.40 or 1.20 mg/kg of RB_RMAB01 and 3.60 mg/kg of IMAB362 reference protein. Plasma was sampled 2, 6, 8, 10, 22, 24, 27, 30, 48, 72, 96, 168, 216, 264 and 336 hours post administration. RiboMab01 concentrations in plasma measured via ELISA are shown. Error bars are standard errors of the mean (n=3).

[6] = tested on: CLDN-18.2+ NUG-C4 transfectants; assay: Ex vivo ADCC assay with plasma of dosed mice; type: cell-based, human; details: 1% plasma sampled 24 hours post 5th IV dosing of 1-30 μg RNA composition, 48 hours, E:T 30:1
Method: as §1, §2

[7] = tested on: CHO-K1 cells; assay: Expression and assembly of RiboMab after lipofection of CHO-K1 cells (ELISA); type: cell-based, Chinese hamster; details: 48 hours post lipofection

## CLDN-18.2-targeting RiboMab: CLDN-18.2-targeting IgG antibody (IMAB362 delivered as ribonucleic acid) expressed from mRNAs encoding heavy and light chain
[1]
  unspecific lysis on target-negative cells: No unspecific lysis
[2]; FIG. 5 Panel C dilution row
  unspecific lysis on control cells: weak unspecific lysis
[2]; NHP serum 24 h and 168 h post dosing
  unspecific lysis on target-negative cells: Low effector, donor-dependent unspecific lysis
[3]
  systemic side effects: no systemic side effects such as diarrhea were observed
[4]
  expression and assembly of full IgG in cell supernatant: Fully assembled
[4]; listed as RiboMab01
  expression and assembly of full IgG in cell supernatant: expressed
[5]
  time of peak concentration: 24 h
[6]
  ADCC target cell lysis: high and dose-dependent target cell lysis
[6]; listed as RiboMab01
  ADCC target cell lysis: specific tumor cell lysis
[7]
  expression and assembly of full IgG in cell supernatant: Fully assembled
[7]; listed as RiboMab01
  expression and assembly of full IgG in cell supernatant: expressed
